The values below come from publication PMC5161041 (Journal of medicinal chemistry, 2016).

The IC50 is the concentration needed to halve the response being measured. High values mean weaker potency, low ones greater potency. Usually Ki stands for the equilibrium dissociation constant of an inhibitor or competing ligand from its target. Higher therefore signals weaker binding.

The structures appear in SMILES notation.

The target in data set [1] is Dopamine D2 receptor Gi1 activation (Homo sapiens, UniProt P14416). In kind it is cell-based.
For the next data set, the system named is mice. The data set is described as follows: Locomotor activity studies in mice. The note with it: for locomotion: i.p.
The conditions of data set [2]: introductory statement, no reference given; cited from earlier work.
The next data set concerns the target DAT (Rattus norvegicus, UniProt P23977). The data set is described as follows: DAT binding assay, [3H]WIN 35,428, rat striatal membranes. The following applies: 8c vs 10a, 9c vs 11a.
Another data set addresses NET (Rattus norvegicus, UniProt Q63380). The data set is described as follows: NET binding assay, [3H]nisoxetine, rat frontal cortex membranes.
Data set [3] is described as follows: Mouse microsomal stability assay. The following applies: mouse liver microsomes. Type of data set: in vitro ADME. (In general: Microsomes from liver hold many membrane-bound enzymes, among them those of drug oxidation.)

Sequence of NET (Q63380 1-617): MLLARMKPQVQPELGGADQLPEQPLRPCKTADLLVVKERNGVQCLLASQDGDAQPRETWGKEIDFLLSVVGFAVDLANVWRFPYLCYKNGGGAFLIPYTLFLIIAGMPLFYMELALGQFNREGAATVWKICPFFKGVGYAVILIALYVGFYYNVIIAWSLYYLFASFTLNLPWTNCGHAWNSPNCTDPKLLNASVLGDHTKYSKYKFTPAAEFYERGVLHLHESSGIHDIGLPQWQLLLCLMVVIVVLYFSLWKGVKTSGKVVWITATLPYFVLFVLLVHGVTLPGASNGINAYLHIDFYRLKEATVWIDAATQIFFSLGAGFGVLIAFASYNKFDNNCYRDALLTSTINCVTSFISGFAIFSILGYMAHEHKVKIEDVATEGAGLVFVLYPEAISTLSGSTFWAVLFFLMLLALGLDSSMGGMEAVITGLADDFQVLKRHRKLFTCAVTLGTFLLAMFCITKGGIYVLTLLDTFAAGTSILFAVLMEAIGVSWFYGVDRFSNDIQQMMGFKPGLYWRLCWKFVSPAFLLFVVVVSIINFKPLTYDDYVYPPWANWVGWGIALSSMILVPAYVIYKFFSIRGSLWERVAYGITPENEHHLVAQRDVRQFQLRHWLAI
Sequence of Dopamine D2 receptor Gi1 activation (P14416 whole entry): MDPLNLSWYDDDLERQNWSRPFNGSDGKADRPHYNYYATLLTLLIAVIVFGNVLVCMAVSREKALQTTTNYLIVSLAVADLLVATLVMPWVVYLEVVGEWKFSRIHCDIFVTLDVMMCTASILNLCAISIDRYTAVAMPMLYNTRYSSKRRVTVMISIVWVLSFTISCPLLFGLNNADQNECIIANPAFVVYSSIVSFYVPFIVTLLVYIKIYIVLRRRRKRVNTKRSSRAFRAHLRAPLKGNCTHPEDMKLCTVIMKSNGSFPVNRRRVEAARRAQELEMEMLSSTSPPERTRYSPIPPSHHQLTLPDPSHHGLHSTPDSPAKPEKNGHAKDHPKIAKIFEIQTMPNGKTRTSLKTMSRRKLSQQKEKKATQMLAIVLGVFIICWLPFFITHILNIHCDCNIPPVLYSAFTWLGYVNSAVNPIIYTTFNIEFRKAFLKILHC
Sequence of DAT (P23977 whole entry): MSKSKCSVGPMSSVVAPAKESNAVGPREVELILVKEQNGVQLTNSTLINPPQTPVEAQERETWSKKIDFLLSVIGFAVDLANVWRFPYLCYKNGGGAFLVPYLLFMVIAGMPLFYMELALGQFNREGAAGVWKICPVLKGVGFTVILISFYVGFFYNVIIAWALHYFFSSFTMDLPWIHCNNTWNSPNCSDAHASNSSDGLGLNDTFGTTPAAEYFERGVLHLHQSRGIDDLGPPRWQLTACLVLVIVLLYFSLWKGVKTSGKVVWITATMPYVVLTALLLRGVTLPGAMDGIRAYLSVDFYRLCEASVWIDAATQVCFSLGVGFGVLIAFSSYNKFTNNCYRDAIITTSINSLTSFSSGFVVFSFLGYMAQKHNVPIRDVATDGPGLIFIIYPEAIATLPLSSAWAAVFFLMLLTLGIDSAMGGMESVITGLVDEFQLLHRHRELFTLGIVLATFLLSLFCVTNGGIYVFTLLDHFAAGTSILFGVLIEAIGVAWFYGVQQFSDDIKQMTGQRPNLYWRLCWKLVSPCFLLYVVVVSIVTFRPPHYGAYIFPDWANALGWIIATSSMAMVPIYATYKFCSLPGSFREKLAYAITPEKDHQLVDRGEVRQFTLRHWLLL

Turning to `NC(=O)C[S@@+]([O-])C(c1ccccc1)c1ccccc1` [(R)-2, reference compound], in data set [1], the IC50 is above 10 µM. In addition, the locomotion entry with mice (mice, 10 mg/kg) was “very mild increase”; with mice (mice, 30 mg/kg), “significant dose-dependent increase in locomotion”.

For the compound `NC(=O)C[S+]([O-])C(c1ccccc1)c1ccccc1` (centres unmarked) [Compound 2, 2-[(diphenylmethyl)sulfinyl]acetamide], in data set [2], the water solubility result was “essentially insoluble in water”.

Compound `CCCCN1C2CCC1CC(OC(c1ccc(F)cc1)c1ccc(F)cc1)C2` (centres unmarked) [Compound 3, 3-(bis(4-fluorophenyl)methoxy)-8-butyl-8-azabicyclo[3.2.1]octane] came in with an IC50 in data set [1] of 2 ± 0.73 µM.

Compound `Fc1ccc(C(SCCNCCCc2ccccc2)c2ccc(F)cc2)cc1` [Compound 4, N-(2-((bis(4-fluorophenyl)methyl)thio)ethyl)-3-phenylpropan-1-amine] had a concentration for half-maximal inhibition (IC50) in data set [1] above 10 µM.

With `CC(O)CN1CCN(CCSC(c2ccccc2)c2ccccc2)CC1` (centres unmarked) [Compound 8c, 1-(4-(2-(Benzhydrylthio)ethyl)piperazin-1-yl)propan-2-ol], the “fold decrease in DAT affinity on removal of the phenyl group” value at DAT is 25 fold.

With `CC(O)CN1CCN(CC[S+]([O-])C(c2ccccc2)c2ccccc2)CC1` (centres unmarked) [Compound 9c, 1-(4-(2-(Benzhydrylsulfinyl)ethyl)piperazin-1-yl)propan-2-ol], at DAT, the “fold decrease in DAT affinity on removal of the phenyl group” value turned out to be 187 fold.

The compound `[O-][S+](CCN1CCN(Cc2ccc(F)cc2)CC1)C(c1ccc(F)cc1)c1ccc(F)cc1` (centres unmarked) [Compound 9f, 1-(2-((Bis(4-fluorophenyl)methyl)sulfinyl)ethyl)-4-(4-fluorobenzyl)piperazine] came in with a Ki on NET above 50 µM. Besides, the “time in which metabolized” value in data set [3] is reported as below 30 min.

For the compound `[O-][S+](CCN1CCN(Cc2ccc(C(F)(F)F)cc2)CC1)C(c1ccc(F)cc1)c1ccc(F)cc1` (centres unmarked) [Compound 9g, 1-(2-((Bis(4-fluorophenyl)methyl)sulfinyl)ethyl)-4-(4-(trifluoromethyl)benzyl)piperazine], the Ki at NET was above 50 µM. For the same compound, the “time in which metabolized” value in data set [3] is recorded as below 30 min.

With `[O-][S+](CCN1CCN(Cc2ccc(Cl)cc2)CC1)C(c1ccc(F)cc1)c1ccc(F)cc1` (centres unmarked) [Compound 9h, 1-(2-((Bis(4-fluorophenyl)methyl)sulfinyl)ethyl)-4-(4-chlorobenzyl)piperazine], on NET, the Ki is above 50 µM. Also, in data set [3], the “time in which metabolized” value is below 30 min.

`CC(O)CN1CCN(CC[S+]([O-])C(c2cccc(Cl)c2)c2cccc(Cl)c2)CC1` (centres unmarked) [Compound 9i, 1-(4-(2-((Bis(3-chlorophenyl)methyl)sulfinyl)ethyl)piperazin-1-yl)propan-2-ol] came in with a Ki at NET above 50 µM.

For `[O-][S+](CCN1CCN(CC(O)Cc2ccccc2)CC1)C(c1ccccc1)c1ccccc1` (centres unmarked) [Compound 11a, 1-(4-(2-(Benzhydrylsulfinyl)ethyl)piperazin-1-yl)-3-phenylpropan-2-ol], the “time in which metabolized” value in data set [3] was below 30 min.

Regarding `[O-][S+](CCN1CCN(CC(O)Cc2ccccc2)CC1)C(c1ccc(F)cc1)c1ccc(F)cc1` (centres unmarked) [Compound 11b, 1-(4-(2-((Bis(4-fluorophenyl)methyl)sulfinyl)ethyl)piperazin-1-yl)-3-phenylpropan-2-ol], the “locomotor stimulation compared to cocaine” value is “only moderate locomotor stimulation in mice and was substantially less efficacious than cocaine” with mice (mice); “far less efficacious than cocaine” in the data set with mice (mice, listed as 11d). For the same compound, the locomotion result in the data set with mice (mice, 30 mg/kg) is recorded as “significant dose-dependent increase in locomotion”.

Turning to `CC(O)CN1CCN(C(=O)CSC(c2ccc(F)cc2)c2ccc(F)cc2)CC1` (centres unmarked) [Compound 13c, 2-((Bis(4-fluorophenyl)methyl)thio)-1-(4-(2-hydroxypropyl)piperazin-1-yl)ethan-1-one], the “time in which metabolized” value in data set [3] was below 30 min.

`CC(O)CN1CCN(C(=O)CSC(c2cccc(Cl)c2)c2cccc(Cl)c2)CC1` (centres unmarked) [Compound 13g, 2-((Bis(3-chlorophenyl)methyl)thio)-1-(4-(2-hydroxypropyl)piperazin-1-yl)ethan-1-one] returned a Ki on NET above 50 µM.

In the case of `O=C(C[S+]([O-])C(c1ccc(F)cc1)c1ccc(F)cc1)N1CCN(CCCc2ccccc2)CC1` (centres unmarked) [Compound 14b, 2-((Bis(4-fluorophenyl)methyl)sulfinyl)-1-(4-(3-phenylpropyl)piperazin-1-yl)ethan-1-one], the “time in which metabolized” value in data set [3] is below 30 min.

As to `O=C(C[S+]([O-])C(c1ccc(F)cc1)c1ccc(F)cc1)N1CCN(Cc2ccc(F)cc2)CC1` (centres unmarked) [Compound 14e, 2-((Bis(4-fluorophenyl)methyl)sulfinyl)-1-(4-(4-fluorobenzyl)piperazin-1-yl)ethan-1-one], in data set [3], the “time in which metabolized” value is recorded as below 30 min.

`CC(O)CN1CCN(C(=O)C[S+]([O-])C(c2cccc(Cl)c2)c2cccc(Cl)c2)CC1` (centres unmarked) [Compound 14g, 2-((Bis(3-chlorophenyl)methyl)sulfinyl)-1-(4-(2-hydroxypropyl)piperazin-1-yl)ethan-1-one] had a Ki at NET above 50 µM.

Regarding `COC(=O)[C@H]1[C@@H](OC(=O)c2ccccc2)C[C@@H]2CC[C@H]1N2C` [cocaine, reference compound], the locomotion entry with mice (mice, 3, 10 mg/kg) is on record as “robust dose-dependent increase in locomotion”.

`CCc1cc(Cl)c(OC)c(C(=O)NC[C@@H]2CCCN2CC)c1O` [eticlopride] showed an IC50 in data set [1] of 0.0021 ± 0.0008 µM.
